Values joined by “and” are separate entries in the source; they are usually repeats but may differ in a detail not shown here. Equal entries are not always repeated.
Test system: 857933-349-R-J2-PDC complex spheroids, viability
Test: Anticancer human tumor 857933-349-R-J2-PDC patient-derived colon adenocarcinoma cell line growth inhibition [GQUAD]
Details: for viability, T/C: stronger effect = lower value
Text: DNA G-quadruplex Stabilizer Agents in Combinations in Complex Spheroids
A high-throughput screen of multi-cell type tumor spheroids was designed to identify active combinations of DNA G-quadruplex stabilizer agents and targeted small molecules. Complex spheroids include a stromal component modeled by human endothelial cells (HUVEC) and fibroblasts modeled by human mesenchymal stem cells (MSCs). The concentration ranges selected for each drug and investigational agent were based upon clinically achievable concentrations if the clinical Cmax of the agent was known.
Compounds. The drugs and investigational agents: pidnarulex (CX-5461; NSC782164), APTO-253 (NSC789042), BRACO-19 (NSC847499), peposertib (NSC802822), ceralasertib (NSC780249), elimusertib (NSC800525), camonsertib (NSC841442), AZD-1390 (NSC803789), olaparib (NSC753686), talazoparib (NSC767125), ART-558 (NSC835418), sotorasib (NSC818433), MRTX-1133 (NSC836407), SN-38 (NSC673596), topotecan (NSC609699), etoposide (NSC141540), doxorubicin (NSC123127), gemcitabine (NSC613327), 5-fluorouracil (NSC19893), paclitaxel (NSC125973), vemurafenib (NSC761431), panobinostat (NSC761190), R-306465 (JNJ-16241199; NSC773264), adavosertib (NSC754352), TP-3654 (NSC805149), carboplatin (NSC241240), KSQ-4279 (NSC840948), and staurosporine (NSC755774) were obtained from the National Cancer Institute (NCI) Developmental Therapeutics Program Chemical Repository (34). The FDA-approved anticancer drug set is available from the NCI Developmental Therapeutics Program. […] The stock solutions were prepared in dimethyl sulfoxide (DMSO, Sigma-Aldrich, St. Louis, MO, cat. D2650) at 800-fold the tested concentration and stored at -70 degrees C prior to their use. All drugs and investigational agents were tested over a range starting from a high concentration at or near the clinical Cmax and decreasing in half-log increments. If the clinical Cmax for an agent had not been determined, the highest concentration tested was 10 microM.
2.3 Cell Culture. All cells were maintained in an incubator at 37 degrees C and 5% CO2 with 95% humidity. The PDC lines were cultured according to standard operating procedures established by the NCI PDMR. All PDCs were thawed and cultured in Matrigel-coated flasks prepared with a working solution of 1X Ham's F-12 nutrient mix, without supplementation (Invitrogen, cat. 11765054), 100 U/mL penicillin-streptomycin (Invitrogen, cat. 15140122), and 2.5% Matrigel (Corning Inc., cat. 354248) for the first three passages. The 857933-349-R-J2-PDC line was cultured in 6C/Colon 1B media, which includes advanced DMEM/F-12 (Thermo Fisher Scientific, cat. 12634028), 10 mM HEPES (Thermo Fisher Scientific, cat. 15630080), 1X GlutaMAX supplement (Thermo Fisher Scientific, cat. 35050061), 0.1 mg/mL primocin (InvivoGen, cat. ant-pm-2), 10% defined fetal bovine serum, heat inactivated (HyClone Laboratories Inc., cat. SH30070.03HI), 50% L-WRN conditioned media (ATCC, cat. CRL-3276), 1.25 mM N-Acetyl-L-cysteine (Sigma-Aldrich, cat. A9165), 10 mM nicotinamide (Sigma-Aldrich, cat. N0636), 1X B-27 supplement (Thermo Fisher Scientific, cat. 17504044), 1X N-2 supplement (Thermo Fisher Scientific, cat. 17502048), 10 microM Y-27632 dihydrochloride (Tocris Bioscience, cat. 1254), and 50 ng/mL human EGF recombinant protein (Thermo Fisher Scientific, cat. PHG0311). The 485176-168-R4-J1-PDC line was cultured in Panc media, which includes all 6C/Colon 1B media components plus 100 ng/mL human FGF-10 (Thermo Fisher Scientific, cat. 100-26), 500 nM SB-431542 (Selleckchem, cat. S1067), and gastrin (Tocris, cat. 3006).
[…]

[1] = curve of first compound, second compound 0.0316 µM
[2] = curve of first compound, second compound 0.1 µM
[3] = curve of first compound, second compound 0.316 µM
[4] = curve of first compound, second compound 1 µM
[5] = curve of first compound, second compound 3.16 µM
[6] = curve of first compound, second compound 10 µM
[7] = second compound 0.0316 µM, first compound 0.0316 µM
[8] = second compound 0.0316 µM, first compound 0.1 µM
[9] = second compound 0.0316 µM, first compound 0.316 µM
[10] = second compound 0.0316 µM, first compound 1 µM
[11] = second compound 0.0316 µM, first compound 3.16 µM
[12] = second compound 0.0316 µM, first compound 10 µM
[13] = second compound 0.1 µM, first compound 0.0316 µM
[14] = second compound 0.1 µM, first compound 0.1 µM
[15] = second compound 0.1 µM, first compound 0.316 µM
[16] = second compound 0.1 µM, first compound 1 µM
[17] = second compound 0.1 µM, first compound 3.16 µM
[18] = second compound 0.1 µM, first compound 10 µM
[19] = second compound 0.316 µM, first compound 0.0316 µM
[20] = second compound 0.316 µM, first compound 0.1 µM
[21] = second compound 0.316 µM, first compound 0.316 µM
[22] = second compound 0.316 µM, first compound 1 µM
[23] = second compound 0.316 µM, first compound 3.16 µM
[24] = second compound 0.316 µM, first compound 10 µM
[25] = second compound 1 µM, first compound 0.0316 µM
[26] = second compound 1 µM, first compound 0.1 µM
[27] = second compound 1 µM, first compound 0.316 µM
[28] = second compound 1 µM, first compound 1 µM
[29] = second compound 1 µM, first compound 3.16 µM
[30] = second compound 1 µM, first compound 10 µM
[31] = second compound 3.16 µM, first compound 0.0316 µM
[32] = second compound 3.16 µM, first compound 0.1 µM
[33] = second compound 3.16 µM, first compound 0.316 µM
[34] = second compound 3.16 µM, first compound 1 µM
[35] = second compound 3.16 µM, first compound 3.16 µM
[36] = second compound 3.16 µM, first compound 10 µM
[37] = second compound 10 µM, first compound 0.0316 µM
[38] = second compound 10 µM, first compound 0.1 µM
[39] = second compound 10 µM, first compound 0.316 µM
[40] = second compound 10 µM, first compound 1 µM
[41] = second compound 10 µM, first compound 3.16 µM
[42] = second compound 10 µM, first compound 10 µM
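Also: spheroids exposed to compounds for one week before readout.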
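For viability, T/C in this document: percent viability relative to vehicle DMSO wells taken as 100%.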

COc1cccc2c1C(=O)c1c(O)c3c(c(O)c1C2=O)CC(O)(C(=O)CO)CC3OC1CC(N)C(O)C(C)O1 (stereo not drawn) + Cc1cnc(CNC(=O)c2c(=O)c3ccc(N4CCCN(C)CC4)nc3n3c2sc2ccccc23)cn1
IC50 [1]: 0.398 µM
IC50 [2]: 0.212 µM
IC50 [3]: < 0.0316 µM
IC50 [4]: < 0.0316 µM
IC50 [5]: < 0.0316 µM
IC50 [6]: < 0.0316 µM
viability, T/C [7]: 72.5%
viability, T/C [8]: 51.6%
viability, T/C [9]: 54.1%
viability, T/C [10]: 35.8%
viability, T/C [11]: 3.33%
viability, T/C [12]: 0.11%
viability, T/C [13]: 53%
viability, T/C [14]: 57.9%
viability, T/C [15]: 44.4%
viability, T/C [16]: 29.3%
viability, T/C [17]: 2.19%
viability, T/C [18]: 0.13%
viability, T/C [19]: 27.1%
viability, T/C [20]: 29.6%
viability, T/C [21]: 11.8%
viability, T/C [22]: 4.55%
viability, T/C [23]: 0.39%
viability, T/C [24]: 0.1%
viability, T/C [25]: 5.09%
viability, T/C [26]: 6.32%
viability, T/C [27]: 3.38%
viability, T/C [28]: 1.67%
viability, T/C [29]: 0.15%
viability, T/C [30]: 0.09%
viability, T/C [31]: 2.45%
viability, T/C [32]: 2.76%
viability, T/C [33]: 1.56%
viability, T/C [34]: 0.62%
viability, T/C [35]: 0.14%
viability, T/C [36]: 0.12%
viability, T/C [37]: 2.24%
viability, T/C [38]: 2.09%
viability, T/C [39]: 0.73%
viability, T/C [40]: 0.23%
viability, T/C [41]: 0.23%
viability, T/C [42]: 0.19%

CN(C)c1ccc(Nc2c3ccc(NC(=O)CCN4CCCC4)cc3nc3cc(NC(=O)CCN4CCCC4)ccc23)cc1
viability, T/C (compound 0.0316 µM): 104% [middle of 12 runs]
viability, T/C (compound 0.1 µM): 105% [middle of 12 runs]
viability, T/C (compound 0.316 µM): 106% [middle of 12 runs]
viability, T/C (compound 1 µM): 103% [middle of 12 runs]
viability, T/C (compound 3.16 µM): 88.4% [middle of 12 runs]
viability, T/C (compound 10 µM): 74.7% [middle of 12 runs]
IC50 (compound alone, run of 02/26/2024): > 10 µM

CC(C)n1c(=O)n(C)c2cnc3cc(F)c(-c4ccc(OCCCN5CCCCC5)nc4)cc3c21
viability, T/C (compound 0.0316 µM): 105% and 109% (2×)
viability, T/C (compound 0.1 µM): 101% and 106% and 90.6%
viability, T/C (compound 0.316 µM): 104% and 109% and 108%
viability, T/C (compound 1 µM): 98.6% and 103% and 99.5%
viability, T/C (compound 3.16 µM): 104% and 110% and 107%
viability, T/C (compound 10 µM): 78.2% and 107% and 72.4%
IC50 (curve of compound): > 10 µM

COc1ncnc(C2CC2)c1-c1ncc2cnn(Cc3ccc(-c4nc(C(F)(F)F)cn4C(C)C)cc3)c2n1 + Cc1[nH]c2ccc(F)cc2c1-c1nc2c3cccnc3c3ncccc3c2[nH]1
IC50 [1]: > 10 µM
IC50 [2]: > 10 µM
IC50 [3]: > 10 µM
IC50 [4]: > 10 µM
IC50 [5]: > 10 µM
IC50 [6]: > 10 µM
viability, T/C [7]: 102%
viability, T/C [8]: 104%
viability, T/C [9]: 99%
viability, T/C [10]: 104%
viability, T/C [11]: 109%
viability, T/C [12]: 103%
viability, T/C [13]: 106%
viability, T/C [14]: 106%
viability, T/C [15]: 107%
viability, T/C [16]: 106%
viability, T/C [17]: 98%
viability, T/C [18]: 102%
viability, T/C [19]: 102%
viability, T/C [20]: 100%
viability, T/C [21]: 96.1%
viability, T/C [22]: 100%
viability, T/C [23]: 94.3%
viability, T/C [24]: 95.6%
viability, T/C [25]: 102%
viability, T/C [26]: 91.4%
viability, T/C [27]: 96.3%
viability, T/C [28]: 87.9%
viability, T/C [29]: 98.4%
viability, T/C [30]: 90.7%
viability, T/C [31]: 98%
viability, T/C [32]: 83.1%
viability, T/C [33]: 84.5%
viability, T/C [34]: 83.2%
viability, T/C [35]: 92.5%
viability, T/C [36]: 83.4%
viability, T/C [37]: 86.3%
viability, T/C [38]: 87.7%
viability, T/C [39]: 84.6%
viability, T/C [40]: 91.3%
viability, T/C [41]: 90.3%
viability, T/C [42]: 88.2%
